From US20050107289A1, “Anti-microbial peptides and compositions” (priority 2001, published 2005)
Read-outs that look alike come from different tables or passages of the source. Non-standard residues stand in square brackets, D forms with d. Residues, ends and D or L forms follow the SMILES beside them.

What was measured:
[1] = tested on: S. aureus (MRSA) ATCC 33591; assay type: cell-based, Staphylococcus aureus; details: for MRSA (in vitro activity): Table 9; for S. aureus (MRSA) MIC: ATCC 33591
Experimental: (§1) The antimicrobial activity of the peptides was determined using a broth dilution assay essentially as descried in the guidelines of the National Committee for […] (NCCLS) [National Committee for Clinical Laboratory Standards. Methods for dilution antimicrobial susceptibility tests for bacteria that grow aerobically. Fourth edition. Approved Standard (1997). Document M7-A4. […] The microdilution method has the advantages of requiring less amount of peptide for each assay and the possibility of multiple simultaneous inoculations and was used in most studies. Several of the strains of bacteria tested are further described in Table 3.
(§2) Preparation of peptide solutions. Stock peptide solutions were prepared in 5% DMSO in aq. sucrose (9%). Determination of peptide concentrations was done by quantitative HPLC analysis using known concentrations of internal standards and/or by measuring UV absorption of tryptophane-containing peptide solutions in H2O (λ=280 εTrp: 5690). Serial 2-fold dilutions were made in the above DMSO/aq. sucrose (9%) mixture with concentrations ranging approximately 400-2 μg/ml and aliquots were dispensed in test tubes (100 μl) for the macrodilution test or in microtiter plates (20 μl) for the microdilution assays.
(§3) Inoculum preparation. Overnight cultures of different microorganisms grown in suitable media were diluted 4000 times to an approximate inoculum size of 2.5×10^5 cfu/ml.
(§4) Macrodilution method. Macrodilution methods were performed using procedures similar to those described in the National Committee for Clinical Laboratory Standards. Methods for dilution antimicrobial susceptibility tests for bacteria that grow aerobically. Fourth edition. Approved Standard (1997). Document M7-A4. (NCCLS,Villanova, Pa., 1997). Two ml aliquots of the above inoculum were dispensed to test tubes containing different peptide solutions.
(§5) Microdilution method. Microdilution methods were performed using procedures similar to those described in the National Committee for Clinical Laboratory Standards. Methods for dilution antimicrobial susceptibility tests for bacteria that grow aerobically. Fourth edition. Approved Standard (1997). Document M7-A4.

murine red blood cells = experiment: Red blood cell hemolysis; assay type: cell-based, mouse
Experimental: Selectivity of cyclic peptides for bacterial over mammalian cells was evaluated by measuring red blood cell hemolytic activities as described in Tosteson, M. T. Holmes, S. J., Razin, M. and Tosteson, D. C. Melittin Lysis of Red Cells, J. Membrane Biol. 87, 35-44(1985). Heparinized murine blood was centrifuged at 1000×g for 10 minutes. The supernatant and the buffy coat were removed. Erythrocytes were washed three times with 0.9% saline solution and then resuspended to a concentration of 5% in saline containing 10% FBS (v/v). Red blood cells were then treated with serial dilutions of test peptides in a 96 well plate at 37° C. for 30 minutes. Control samples included a saline solution arid 1% Triton X-100 as 0 and 100% hemolysis, respectively. In some cases, mellitin was used as a further control. Mellitin is a linear peptide that is hemolytic against mammalian red blood cells in vitro at a concentration of about 10 μg/ml. Plates were centrifuged at 1000 g for 10 minutes. Aliquots of the supernatant were diluted 2 times with saline solution and the absorbance was measured at 560 nm.

[2] = tested on: vancomycin-resistant Enterococus faecalis (VRE)(ATCC 51575); assay type: cell-based, Enterococcus faecalis; design: key to VRE (in vitro activity): peptide concentration in μg/ml (broth dilution assay); details: Table 9
Experimental: as §1, §2, §3, §4, §5

[3] = media b: cation adjusted Meuller Hinton broth (MHBII)
[4] = media c: Brain Heart Infusion (BHI)
[5] = media a: anti-microbial media-3 (AM-3)

Compound | MRSA (in vitro activity) [1, 3] | RBC Hemolysis (HD50) (murine red blood cells) | VRE (in vitro activity) [2, 4] | also measured
CC(C)C[C@@H]1NC(=O)[C@@H](Cc2c[nH]c3ccccc23)NC(=O)[C@H](CCCCN)NC(=O)[C@@H](CO)NC(=O)[C@H](CO)NC(=O)[C@@H](CO)NC(=O)[C@H](CCCCN)NC(=O)[C@@H](Cc2c[nH]c3ccccc23)NC1=O [SEQ ID NO:93, [KSSSKWLW]] (cyclo(K[dS]S[dS]K[dW]L[dW])) | 6 | 175 | 6 | –
CC(C)C[C@H]1NC(=O)[C@H](CCCCN)NC(=O)[C@@H](CO)NC(=O)[C@H](CCCCN)NC(=O)[C@@H](CC(C)C)NC(=O)[C@H](CCCNC(=N)N)NC(=O)[C@@H](CC(C)C)NC(=O)[C@H](CCCNC(=N)N)NC1=O [SEQ ID NO:105, [KSKLRLRL]] (cyclo(K[dL]R[dL]R[dL]K[dS])) | – | >240 | – | MRSA (in vitro activity) ([1]; media b: cation adjusted Meuller Hinton broth (MHBII), listed as [KSKLRLRL] (105)): >240; VRE (in vitro activity) ([2]; media c: Brain Heart Infusion (BHI), listed as [KSKLRLRL] (105)): >240
CC(C)C[C@H]1NC(=O)[C@H](CCCCN)NC(=O)[C@@H](CO)NC(=O)[C@H](CCCCN)NC(=O)[C@@H](CC(C)C)NC(=O)[C@H](C(C)C)NC(=O)[C@@H](CC(C)C)NC(=O)[C@H](C(C)C)NC1=O [SEQ ID NO:60, [KSKLVLVL]] (cyclo(K[dS]K[dL]V[dL]V[dL])) | >220 | >220 | >220 | –
CC(C)C[C@@H]1NC(=O)[C@@H](CCCNC(=N)N)NC(=O)[C@H](CCC(N)=O)NC(=O)[C@@H](CCCNC(=N)N)NC(=O)[C@H](Cc2c[nH]c3ccccc23)NC(=O)[C@@H](Cc2c[nH]c3ccccc23)NC(=O)[C@H](CC(C)C)NC(=O)[C@@H](Cc2c[nH]c3ccccc23)NC1=O [SEQ ID NO:69, [QRLWLWWR]] (cyclo(Q[dR]L[dW]L[dW]W[dR])) | 6.3 | 35 | – | VRE (in vitro activity) ([2]; media b: MHBII): 6.3
CC(C)C[C@@H]1NC(=O)[C@@H](Cc2c[nH]c3ccccc23)NC(=O)[C@H](C(C)C)NC(=O)[C@@H](CCCNC(=N)N)NC(=O)[C@H](CCC(N)=O)NC(=O)[C@@H](CCCNC(=N)N)NC(=O)[C@H](Cc2c[nH]c3ccccc23)NC(=O)[C@@H](Cc2c[nH]c3ccccc23)NC1=O [SEQ ID NO:38, QRVWLWWR] (cyclo(Q[dR]V[dW]L[dW]W[dR])) | – | – | – | S. aureus (MRSA) MIC [1]: 2.5 to 3.8 µg/mL
CC(C)C[C@@H]1NC(=O)[C@@H](Cc2c[nH]c3ccccc23)NC(=O)[C@H](CCC(N)=O)NC(=O)[C@@H](CC(N)=O)NC(=O)[C@H](CCCCN)NC(=O)[C@@H](Cc2c[nH]c3ccccc23)NC1=O [SEQ ID NO:123, [KNQWLW]] (cyclo(K[dN]Q[dW]L[dW])) | – | >74 | – | MRSA (in vitro activity) [1, 5]: >74; VRE (in vitro activity) ([2]; media a: AM-3): >74
CC(C)C[C@H]1NC(=O)[C@H](Cc2c[nH]c3ccccc23)NC(=O)[C@@H](CCCCN)NC(=O)[C@H](CCCCN)NC(=O)[C@@H](CO)NC(=O)[C@H](CCCCN)NC(=O)[C@@H](CC(C)C)NC(=O)[C@H](Cc2c[nH]c3ccccc23)NC1=O [SEQ ID NO:77, [KSKKWLWL]] (cyclo(K[dS]K[dK]W[dL]W[dL])) | 13 | >220 | 27 | –
CC(C)C[C@H]1NC(=O)CNC(=O)[C@@H](CC(C)C)NC(=O)[C@H](CCCCN)NC(=O)[C@@H](CO)NC(=O)[C@H](CCCCN)NC(=O)[C@@H](CC(C)C)NC(=O)CNC1=O [SEQ ID NO:56, [KSKLGLGL]] (cyclo(K[dS]K[dL]G[dL]G[dL])) | >240 | >240 | >240 | –
CC(C)C[C@H]1NC(=O)[C@H](CCCCN)NC(=O)[C@@H](Cc2c[nH]cn2)NC(=O)[C@H](CCCCN)NC(=O)[C@@H](CC(C)C)NC(=O)[C@H](Cc2ccccc2)NC(=O)[C@@H](CC(C)C)NC(=O)[C@H](Cc2ccccc2)NC1=O [SEQ ID NO:48, [KHKLFLFL]] (cyclo(K[dH]K[dL]F[dL]F[dL])) | 7 | >220 | 13 | –
CC(C)C[C@H]1NC(=O)[C@H](Cc2c[nH]c3ccccc23)NC(=O)[C@@H](CC(C)C)NC(=O)[C@H](CCCCN)NC(=O)[C@@H]([C@H](C)O)NC(=O)[C@H](CCCCN)NC(=O)[C@@H](CC(C)C)NC(=O)[C@H](Cc2c[nH]c3ccccc23)NC1=O [SEQ ID NO:66, [KTKLWLWL]] (cyclo(K[dT]K[dL]W[dL]W[dL])) | 18 | 150 | 18 | –
CC(C)C[C@H]1NC(=O)[C@H](CCCCN)NC(=O)[C@@H](CO)NC(=O)[C@H](CCCCN)NC(=O)[C@@H](CC(C)C)NC(=O)[C@H](Cc2ccccc2)NC(=O)[C@@H](CC(C)C)NC(=O)[C@H](Cc2ccccc2)NC1=O [SEQ ID NO:55, [KSKLFLFL]] (cyclo(F[dL]F[dL]K[dS]K[dL])) | – | – | – | MRSA (in vitro activity) ([1]; media b: cation adjusted Meuller Hinton broth (MHBII), listed as [KSKLFLFL] (55)): 200; VRE (in vitro activity) ([2]; media b: MHBII): 50
CC(C)C[C@@H]1NC(=O)[C@@H](Cc2c[nH]c3ccccc23)NC(=O)[C@H](Cc2c[nH]c3ccccc23)NC(=O)[C@@H](CCCNC(=N)N)NC(=O)[C@H](CCC(N)=O)NC(=O)[C@@H](CCCNC(=N)N)NC(=O)[C@H](Cc2c[nH]c3ccccc23)NC(=O)[C@@H](Cc2c[nH]c3ccccc23)NC1=O [SEQ ID NO:36, QRWWLWWR] (cyclo(Q[dR]W[dW]L[dW]W[dR])) | – | – | – | S. aureus (MRSA) MIC [1]: 2.5 to 3.8 µg/mL
CC(C)C[C@@H]1NC(=O)[C@@H](Cc2c[nH]c3ccccc23)NC(=O)[C@H](Cc2ccccc2)NC(=O)[C@@H](CCCNC(=N)N)NC(=O)[C@H](CCC(N)=O)NC(=O)[C@@H](CCCNC(=N)N)NC(=O)[C@H](Cc2c[nH]c3ccccc23)NC(=O)[C@@H](Cc2c[nH]c3ccccc23)NC1=O [SEQ ID NO:39, QRFWLWWR] (cyclo(Q[dR]F[dW]L[dW]W[dR])) | – | – | – | S. aureus (MRSA) MIC [1]: 2.5 to 3.8 µg/mL
CC(C)C[C@@H](NC(=O)[C@H](Cc1c[nH]c2ccccc12)NC(=O)[C@@H](CC(C)C)NC(=O)[C@H](Cc1c[nH]c2ccccc12)NC(=O)[C@@H](CCCCN)NC(=O)[C@H](CCCCN)NC(=O)[C@@H](CCCCN)NC(=O)[C@@H](N)Cc1c[nH]c2ccccc12)C(=O)N[C@@H](Cc1c[nH]c2ccccc12)C(=O)O [SEQ ID NO:23, WKKKWLWLW] (H-W[dK]K[dK]W[dL]W[dL]W-OH; N-terminus and C-terminus assumed) | – | – | – | S. aureus (MRSA) MIC [1]: 60 µg/mL
C[C@H](O)[C@H]1NC(=O)[C@H](CCCNC(=N)N)NC(=O)[C@@H](CO)NC(=O)[C@H](CCC(N)=O)NC(=O)[C@@H](Cc2c[nH]cn2)NC(=O)[C@H](CCCCN)NC1=O [SEQ ID NO:131, [KHQSRT]] (cyclo(K[dH]Q[dS]R[dT])) | – | – | – | MRSA (in vitro activity) [1, 5]: >200; VRE (in vitro activity) ([2]; media a: AM-3): >200
CC(C)C[C@@H](NC(=O)[C@H](Cc1c[nH]c2ccccc12)NC(=O)[C@@H](CC(C)C)NC(=O)[C@H](Cc1c[nH]c2ccccc12)NC(=O)[C@@H](CCCCN)NC(=O)[C@H](CCCCN)NC(=O)[C@H](N)CCCCN)C(=O)N[C@@H](Cc1c[nH]c2ccccc12)C(=O)O [SEQ ID NO:24, KKKWLWLW] (H-[dK]K[dK]W[dL]W[dL]W-OH; N-terminus and C-terminus assumed) | – | – | – | S. aureus (MRSA) MIC [1]: 50 µg/mL
CC[C@H](C)[C@@H]1NC(=O)[C@@H](CC(C)C)NC(=O)[C@H](CCCCN)NC(=O)[C@@H](CO)NC(=O)[C@H](CCCCN)NC(=O)[C@@H](CC(C)C)NC(=O)[C@H]([C@@H](C)CC)NC(=O)[C@@H](CC(C)C)NC1=O [SEQ ID NO:58, [KSKLILIL]] (cyclo(I[dL]I[dL]K[dS]K[dL])) | – | – | – | MRSA (in vitro activity) ([1]; media b: cation adjusted Meuller Hinton broth (MHBII), listed as [KSKLILIL] (58)): >200; VRE (in vitro activity) ([2]; media b: MHBII): 50
